Source: PubChem BioAssay (NCI)
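Interpolation was linear, between the two tested concentrations surrounding the appropriate level; five concentrations were tested over 48 hours in 96-well plates. TGI is the concentration that stops growth completely.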

Key:
Assay in all cases: inhibition of tumour cell growth, NCI panel, 48 h
MCF7 breast = test system: MCF7 breast
SF-539 CNS = test system: SF-539 CNS
NCI-H522 lung = test system: NCI-H522 lung
SK-MEL-28 melanoma = test system: SK-MEL-28 melanoma
U251 CNS = test system: U251 CNS
SN12C renal = test system: SN12C renal
MDA-N = test system: MDA-N
RPMI-8226 leukemia = test system: RPMI-8226 leukemia
MDA-MB-231 breast = test system: MDA-MB-231 breast
ACHN renal = test system: ACHN renal
IGROV1 ovarian = test system: IGROV1 ovarian
HCC-2998 colon = test system: HCC-2998 colon
NCI-H23 lung = test system: NCI-H23 lung
SF-295 CNS = test system: SF-295 CNS
NCI/ADR-RES ovarian = test system: NCI/ADR-RES ovarian
HS 578T breast = test system: HS 578T breast
CCRF-CEM leukemia = test system: CCRF-CEM leukemia
RXF 393 renal = test system: RXF 393 renal
T-47D breast = test system: T-47D breast
TK-10 renal = test system: TK-10 renal
786-0 renal = test system: 786-0 renal
LOX IMVI melanoma = test system: LOX IMVI melanoma
UO-31 renal = test system: UO-31 renal
A498 renal = test system: A498 renal
DU-145 prostate = test system: DU-145 prostate
HT29 colon = test system: HT29 colon
HOP-62 NSCLC = test system: HOP-62 NSCLC
HL-60(TB) leukemia = test system: HL-60(TB) leukemia
HOP-92 NSCLC = test system: HOP-92 NSCLC
SF-268 CNS = test system: SF-268 CNS
SK-MEL-5 melanoma = test system: SK-MEL-5 melanoma
SK-OV-3 ovarian = test system: SK-OV-3 ovarian
MDA-MB-435 = test system: MDA-MB-435
PC-3 prostate = test system: PC-3 prostate
NCI-H460 lung = test system: NCI-H460 lung
A549 NSCLC = test system: A549 NSCLC
OVCAR-5 ovarian = test system: OVCAR-5 ovarian
UACC-257 melanoma = test system: UACC-257 melanoma
MOLT-4 leukemia = test system: MOLT-4 leukemia
SNB-75 CNS = test system: SNB-75 CNS
MALME-3M melanoma = test system: MALME-3M melanoma
HCT-116 colon = test system: HCT-116 colon
NCI-H226 lung = test system: NCI-H226 lung
EKVX NSCLC = test system: EKVX NSCLC
OVCAR-4 ovarian = test system: OVCAR-4 ovarian
OVCAR-8 ovarian = test system: OVCAR-8 ovarian
COLO 205 colon = test system: COLO 205 colon
SW-620 colon = test system: SW-620 colon
KM12 colon = test system: KM12 colon
HCT-15 colon = test system: HCT-15 colon
K-562 leukemia = test system: K-562 leukemia
SR leukemia = test system: SR leukemia
OVCAR-3 ovarian = test system: OVCAR-3 ovarian
UACC-62 melanoma = test system: UACC-62 melanoma
SNB-19 CNS = test system: SNB-19 CNS
M14 melanoma = test system: M14 melanoma
SK-MEL-2 melanoma = test system: SK-MEL-2 melanoma
CAKI-1 renal = test system: CAKI-1 renal

Measured: TGI

Cc1ccc2c(c1)C(=O)C1(Cc3ccccc3C1=O)C2 (configuration not stated)
39 µM: UO-31 renal
not listed: SK-MEL-2 melanoma | CAKI-1 renal
> 100 µM: all other assays above

CSC(=S)N/N=C(\C)c1ccc(S(=O)(=O)N(C)c2ccccc2)cc1
87 µM: HS 578T breast
22.5 µM: MALME-3M melanoma
not listed: NCI-H522 lung | CCRF-CEM leukemia | SK-MEL-5 melanoma
> 100 µM: all other assays above

COc1cc(NCc2ccc3oc(=O)c(-c4ccccc4)nc3c2)cc(OC)c1OC
not listed: A498 renal | MALME-3M melanoma
> 10 µM: all other assays above
